Data reported in ChEMBL document CHEMBL1123887, “Fluoro ketone containing peptides as inhibitors of human renin” (J Med Chem, 1987).
Numbered stars: 1 amine (or outer) side, 2 acyl side, 3 side chain; on linkers, the order of the positions; unused ones are H or OH. Square brackets hold non-standard residues; d marks the D form. Peptide text beside a SMILES is read from it. * marks the point of attachment. X2 = CC(C)C[C@H](N[*:1])[C@@H](O)C(F)(F)C(=O)[*:2]; X1 = CC(C)C[C@H](N[*:1])C(=O)C(F)(F)C(=O)[*:2]; X3 = CC(C)C[C@H](N[*:1])C(=O)CC(=O)[*:2]; Sta = CC(C)C[C@H](N)[C@@H](O)CC(=O)O; Boc = CC(C)(C)OC(=O)*

Molecular target: T1, Renin (Homo sapiens, UniProt P00797)
T1 sequence (P00797 whole entry): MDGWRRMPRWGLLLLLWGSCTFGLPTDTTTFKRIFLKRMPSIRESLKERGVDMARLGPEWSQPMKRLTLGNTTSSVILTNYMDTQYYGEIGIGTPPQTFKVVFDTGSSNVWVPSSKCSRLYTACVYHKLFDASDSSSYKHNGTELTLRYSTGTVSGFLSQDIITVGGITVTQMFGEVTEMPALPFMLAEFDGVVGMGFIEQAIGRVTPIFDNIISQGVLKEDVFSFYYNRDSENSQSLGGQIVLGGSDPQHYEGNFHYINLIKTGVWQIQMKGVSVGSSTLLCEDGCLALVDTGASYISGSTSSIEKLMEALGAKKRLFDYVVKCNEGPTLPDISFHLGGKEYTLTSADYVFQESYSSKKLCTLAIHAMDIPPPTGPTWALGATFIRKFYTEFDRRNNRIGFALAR
Experiment: Compound was evaluated for inhibitory activity against human kidney renin
Assay type: tissue-based

Structure (SMILES)	Ki [nM]
CC(C)C[C@H](NC(=O)C(F)(F)[C@H](O)[C@H](CC(C)C)NC(=O)[C@@H](/C=C/[C@H](Cc1ccccc1)NC(=O)OC(C)(C)C)Cc1ccccc1)C(=O)N[C@@H](Cc1ccccc1)C(N)=O	12000
COC(=O)[C@@H](/C=C/[C@H](CC(C)C)NC(=O)C(F)(F)[C@H](O)[C@H](CC(C)C)NC(=O)[C@H](Cc1ccccc1)NC(=O)[C@H](Cc1ccccc1)NC(=O)OC(C)(C)C)Cc1ccccc1	16000
CC(C)C[C@H](NC(=O)C[C@H](O)[C@H](CC(C)C)NC(=O)[C@H](Cc1ccccc1)NC(=O)[C@H](Cc1ccccc1)NC(=O)OC(C)(C)C)C(=O)N[C@@H](Cc1ccccc1)C(N)=O (Boc-FF[Sta]LF-NH2)	52
CC(C)C[C@H](NC(=O)C(F)(F)C(=O)[C@H](CC(C)C)NC(=O)[C@H](Cc1ccccc1)NC(=O)[C@H](Cc1ccccc1)NC(=O)OC(C)(C)C)C(=O)N[C@@H](Cc1ccccc1)C(N)=O (Boc-FF[X1]LF-NH2)	7

Further compounds by falling Ki, results first:

Ki [nM]	Structure (SMILES)
1200	COC(=O)[C@@H](/C=C/[C@H](CC(C)C)NC(=O)C(F)(F)C(=O)[C@H](CC(C)C)NC(=O)[C@H](Cc1ccccc1)NC(=O)[C@H](Cc1ccccc1)NC(=O)OC(C)(C)C)Cc1ccccc1
154	CC(C)C[C@H](NC(=O)[C@H](Cc1ccccc1)NC(=O)[C@H](Cc1ccccc1)NC(=O)OC(C)(C)C)C(=O)CC(=O)N[C@@H](CC(C)C)C(=O)N[C@@H](Cc1ccccc1)C(N)=O (Boc-FF[X3]LF-NH2)
120	CC(C)C[C@H](NC(=O)C(F)(F)[C@H](O)[C@H](CC(C)C)NC(=O)[C@H](Cc1ccccc1)NC(=O)[C@H](Cc1ccccc1)NC(=O)OC(C)(C)C)C(=O)N[C@@H](Cc1ccccc1)C(N)=O (Boc-FF[X2]LF-NH2)
